pIC50: −log10 of the molar value.
How the values were obtained:
[1] = Inhibition of wild type EGFR in mouse BaF3 cells assessed as cell growth inhibition measured after 72 hrs by CellTiter-Glo assay
[2] = Inhibition of EGFR L858R/T790M/C797S triple mutant in human NCI-H1975 cells assessed as cell growth inhibition measured after 72 hrs by CellTiter-Glo assay

pIC50 [1] | pIC50 [2] | Compound
< 5.00 | – | O=C(Nc1nccs1)C(c1ccccc1)N1Cc2ccccc2C1=O (stereo not drawn)
5.84 | 4.91 | COc1cc2ncnc(NCc3ccc(NC(=O)C(c4ccccc4)N4Cc5ccccc5C4=O)cc3)c2cc1OCCCN1CCOCC1 (stereo not drawn)

Reference: BindingDB's records for doi:10.1016/j.bmc.2023.117534 (Zunyi Medical University, 2023)
